Laboratory results reported in patent US20090149496A1, “INHIBITORS OF THE TASK-1 AND TASK-3 ION CHANNEL” (SANOFI-AVENTIS DEUTSCHLAND GMBH, priority 2006, published 2009).
“And” between values parts separate entries of the source, which are not always exact repeats. Equal entries are not always repeated. Structures can show the parent of a compound that is named as a salt.

What was measured:
respiration = test: Respiratory minute volume in narcotized rats; type: in vivo, rat
Experimental: (§1) E) Investigation of the Effect on the Electromyographic Activity of the Genioglossus Muscle and the Respiratory Minute Volume in Rats
(§2) The compound of example 1 (R-enantiomer) and of example 2 was investigated for electromyographic activity of the genioglossus muscle and for respiration-stimulating effect on male urethane-chloralose-narcotized, vagotomized rats with a weight of from 250 to 300 g. For this purpose, the genioglossus EMG activity was measured by means of EMG electrodes. The respiration-stimulating effect was investigated by measuring the respiratory minute volume by means of a tracheal cannula. For the investigations, the rats were administered intravenously successively with 1, 3 and 10 mg/kg of the compound of example 1 (R-enantiomer) and of example 2, with glycofurol (50%) as the vehicle, at 15 minute intervals. CO2 was used as the positive control for the stimulation of the genioglossus activity and of the respiratory minute volume.

genioglossus muscle = test: Electromyographic activity of the genioglossus muscle in narcotized rats; type: in vivo, rat
Experimental: as §1, §2

TASK1 (mouse) = target: T1, TASK1 (mouse) (Mus musculus, UniProt O35111); test: Activity on the TASK-1 channel in Xenopus oocytes (two-microelectrode voltage clamp), mouse channel; type: cell-based; details: mouse TASK-1 expressed in Xenopus oocytes, voltage jumps to 40 mV, pH 7.4, room temperature; read-out: IC50 (μmol) TASK1 (mouse)
T1 construct: expressed in transfected cells; host or cells: Xenopus laevis oocytes injected with in vitro synthesized RNA
Experimental: (§3) A) Determination of the Activity on the TASK-1 Channel in Xenopus Oocytes
(§4) Mouse or human TASK-1 channels were expressed in Xenopus oocytes. For this purpose, oocytes were first isolated from Xenopus levis and defolliculated. Subsequently, TASK-1-encoding RNA synthesized in vitro was injected into these oocytes. After two days of TASK-1 protein expression, TASK-1 currents were measured on the oocytes with the two-microelectrode voltage clamp technique. In this measurement, the TASK-1 channels were generally activated with voltage jumps lasting 250 ms to 40 mV. The bath was flushed with a solution of the following composition: NaCl 96 mM, KCl 2 mM, CaCl2 1.8 mM, MgCl2 1 mM, HEPES 5 mM (titrated to pH 7.4 with NaOH). These experiments were performed at room temperature. For data acquisition and analysis, the following were used: Geneclamp amplifier (Axon Instruments, Foster City, USA) and MacLab D/A converter and software (ADinstruments, Castle Hill, Australia). The inventive substances were tested by adding them to the bath solution in different concentrations. The effects of the substances were calculated as the percentage inhibition of the TASK-1 control current which was obtained when no substance was added to the solution. The data was subsequently fitted to the Hill equation in order to determine the half-maximum inhibitory concentrations (IC50 values) for the particular substances.

TASK1 (human) [1] = target: T2, TASK1 (human) (Homo sapiens, UniProt O14649); test: Activity on the TASK-1 channel with the FLIPR technique on CHO cells; type: cell-based; parameters: expressed in transfected cells; host or cells: CHO cells; details: inhibition of human TASK-1 current, 10 μmol/l
From the text: B) Determination of the Activity on the TASK-1 Channel with the FLIPR Technique

TASK1 (human) [2] = target: T2, TASK1 (human); test: Activity on the TASK-1 channel in Xenopus oocytes (two-microelectrode voltage clamp), human channel; type: cell-based; parameters: expressed in transfected cells; host or cells: Xenopus laevis oocytes injected with in vitro synthesized RNA; details: human TASK-1 expressed in Xenopus oocytes, voltage jumps to 40 mV, pH 7.4, room temperature; read-out: IC50 (μmol) TASK1 (human)
Experimental: as §3, §4

TASK-1 = details: cited from earlier work; for IC50: stated in the literature, read-out: IC50 value, blocker of TASK-1; for Effect on the TASK-1 channel (in words): therapeutic concentrations, literature

T1 sequence (O35111 whole entry): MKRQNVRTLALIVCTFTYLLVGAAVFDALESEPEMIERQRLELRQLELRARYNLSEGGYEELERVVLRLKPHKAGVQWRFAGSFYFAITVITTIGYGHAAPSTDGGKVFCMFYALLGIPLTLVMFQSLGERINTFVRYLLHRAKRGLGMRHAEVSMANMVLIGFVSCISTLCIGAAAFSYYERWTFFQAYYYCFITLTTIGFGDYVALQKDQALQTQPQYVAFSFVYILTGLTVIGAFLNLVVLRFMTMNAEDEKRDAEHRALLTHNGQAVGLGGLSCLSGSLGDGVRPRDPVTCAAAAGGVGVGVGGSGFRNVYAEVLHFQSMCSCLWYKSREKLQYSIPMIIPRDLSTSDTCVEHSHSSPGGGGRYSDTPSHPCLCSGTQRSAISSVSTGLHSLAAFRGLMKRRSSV
T2 sequence (O14649 whole entry): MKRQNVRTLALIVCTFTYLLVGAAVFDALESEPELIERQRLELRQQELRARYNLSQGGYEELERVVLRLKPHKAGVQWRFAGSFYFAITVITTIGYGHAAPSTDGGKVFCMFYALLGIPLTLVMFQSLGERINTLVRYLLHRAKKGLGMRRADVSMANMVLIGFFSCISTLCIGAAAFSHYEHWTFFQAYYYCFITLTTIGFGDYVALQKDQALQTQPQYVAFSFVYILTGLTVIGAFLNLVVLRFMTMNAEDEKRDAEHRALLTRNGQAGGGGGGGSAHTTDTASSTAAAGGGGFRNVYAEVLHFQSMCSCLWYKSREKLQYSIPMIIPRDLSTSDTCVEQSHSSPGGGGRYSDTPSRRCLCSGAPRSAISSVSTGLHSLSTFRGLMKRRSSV

Row | Compound | IC50 (TASK1 (mouse)) | inhibition at 10 µM (TASK1 (human) [1]) | further results
1 | O=C=O [CO2, reference compound] | – | – | Respiratory minute volume (mean) (respiration; 5% CO2 positive control): 237 mL/min and 209 mL/min; EMG activity of the genioglossus muscle (mean) (genioglossus muscle; 5% CO2 positive control): 5.13 arbitrary units and 3.15 arbitrary units
2 | CCCCS(=O)(=O)Nc1ccccc1C(=O)N[C@@H](CC)c1ccc(OC)nc1 [Example 1 (S-enantiomer), 2-(butyl-1-sulfonylamino)-N-[1(S)-(6-methoxypyridin-3-yl)propyl]benzamide] | 0.8 µM | 58% | –
3 | CC[C@H](NC(=O)c1cc(F)ccc1NS(=O)(=O)c1cccc2cccnc12)c1ccccc1 [Example 3, (S)-5-Fluoro-2-(quinoline-8-sulfonylamino)-N-(1-phenylpropyl)benzamide sodium salt] | – | 82% | –
4 | CC[C@H](NC(=O)c1cc(OC)ccc1NS(=O)(=O)c1ccc(OC)cc1)c1ccccc1 [Example 4, (S)-5-Methoxy-2-(4-methoxybenzenesulfonylamino)-N-(1-phenylpropyl)benzamide] | 0.65 µM | – | –
5 | COc1ccc(CC(=O)NCc2ccccc2-c2cc(Cl)ccc2C(=O)NCc2ccc(F)cc2F)cc1 [Example 6, N-(2,4-Difluorobenzyl)-5-chloro-2′-{[2-(4-methoxyphenyl)acetyl-amino]methyl}biphenyl-2-carboxamide] | 1.15 µM | 68% | –
6 | COc1ccc(CC(=O)NCc2ccccc2-c2ccsc2C(=O)NCc2ccc(F)cc2F)cc1 [Example 8, N-(2,4-Difluorobenzyl)-3-(2-{[2-(4-methoxyphenyl)acetyl-amino]methyl}phenyl)thiophene-2-carboxamide] | 0.55 µM | 77% | –
7 | COc1ccc(CC(=O)NCc2ccccc2-c2ccc(C(=O)NCc3ccc(F)cc3F)o2)cc1 [Example 9, N-(2,4-Difluorobenzyl)-5-(2-{[2-(4-methoxyphenyl)acetyl-amino]methyl}phenyl)furan-2-carboxamide] | 2.37 µM | 60% | –
8 | COc1ccc(CC(=O)NCc2ccccc2-c2sccc2C(=O)NCc2ccc(F)cc2F)cc1 [Example 11, N-(2,4-Difluorobenzyl)-2-(2-{[2-(4-methoxyphenyl)acetyl-amino]methyl}phenyl)thiophene-3-carboxamide] | 0.35 µM | 88% | –
9 | CCCCC/C=C\C/C=C\C/C=C\C/C=C\CCCC(=O)NCCO [anandamide] | – | – | IC50 (TASK-1): 0.7 µM
10 | CCN1CC(CCN2CCOCC2)C(c2ccccc2)(c2ccccc2)C1=O (stereo not shown) [doxapram] | – | – | IC50 (TASK-1): 0.4 µM
11 | FC(F)(F)C(Cl)Br (stereo not shown) [halothane] | – | – | Effect on the TASK-1 channel (in words) (TASK-1): activation
12 | FC(F)OC(Cl)C(F)(F)F (stereo not shown) [isoflurane] | – | – | Effect on the TASK-1 channel (in words) (TASK-1): activation
13 | CCCCC/C=C\C/C=C\C/C=C\C/C=C\CCCC(=O)N[C@H](C)CO [methanandamide] | – | – | IC50 (TASK-1): 0.7 µM

Continued, in another order:

Row | IC50 (TASK1 (mouse)) | inhibition at 10 µM (TASK1 (human) [1]) | Compound | further results
14 | 0.43 µM | 77% | COc1ccc(CC(=O)NCc2ccccc2-c2ccccc2C(=O)NCCc2cccnc2)cc1 [Example 2, N-(2-pyridin-3-ylethyl)-2′-{[2-(4-methoxyphenyl)acetylamino]-methyl}biphenyl-2-carboxamide] | Respiratory minute volume (mean) (respiration; 1 mg/kg intravenously): 253 mL/min; Respiratory minute volume (mean) (respiration; 3 mg/kg intravenously): 279 mL/min; Respiratory minute volume (mean) (respiration; 10 mg/kg intravenously): 291 mL/min; Effect on the respiratory minute volume (in words) (respiration; summary of tables 3 and 5): stimulate; EMG activity of the genioglossus muscle (mean) (genioglossus muscle; 1 mg/kg intravenously): 3.15 arbitrary units; EMG activity of the genioglossus muscle (mean) (genioglossus muscle; 3 mg/kg intravenously): 3.55 arbitrary units; EMG activity of the genioglossus muscle (mean) (genioglossus muscle; 10 mg/kg intravenously): 3.82 arbitrary units; Effect on the electromyographic activity of the genioglossus muscle (in words) (genioglossus muscle; summary of tables 2 and 4): stimulate; IC50 (TASK1 (human) [2]): 0.57 µM
15 | 2.08 µM | 88% | C[C@H](OC(=O)NCc1ccccc1-c1ccccc1C(=O)NC[C@@H](C)O)c1ccccc1 [Example 5, N-(2-(R)-hydroxypropyl)-2′-(α-(S)-methylbenzyloxycarbonyl-aminomethyl)biphenyl-2-carboxamide] | –
16 | 1.06 µM | 57% | CN(CCc1ccccn1)C(=O)c1ccccc1-c1ccccc1CNC(=O)OCc1ccccc1 [Example 7, Benzyl {2′-[methyl-(2-pyridin-2-ylethyl)carbamoyl]biphenyl-2-ylmethyl}carbamate] | –
17 | 1.19 µM | 61% | COc1ccc(CC(=O)NCc2ccccc2-c2occc2C(=O)NCCC(C)C)cc1 [Example 10, N-(3-methylbutyl)-2-(2-{[2-(4-methoxyphenyl)acetyl-amino]methyl}phenyl)furan-3-carboxamide] | –
18 | 3.36 µM | 73% | C[C@H](OC(=O)NCc1ccccc1-c1cccnc1C(=O)NCCc1ccccn1)c1ccccc1 [Example 12, (S)-1-Phenylethyl {2-[2-(2-pyridin-2-ylethylcarbamoyl)pyridin-3-yl]benzyl}carbamate] | –
19 | 2.9 µM | 50% | O=C(NCc1ccccc1-c1ncccc1C(=O)NCc1ccc(F)cc1F)OCc1ccccc1 [Example 14, Benzyl {2-[3-(2,4-Difluorobenzylcarbamoyl)pyridin-2-yl]benzyl}carbamate] | –
20 | 1.83 µM | 70% | CC(C)CCNC(=O)c1cccc(-c2ccncc2CNC(=O)OCc2ccccc2)c1 [Example 15, Benzyl {4-[3-(3-methylbutylcarbamoyl)phenyl]pyridin-3-yl-methyl}carbamate] | –
21 | 2.77 µM | – | COc1ccc(CCC(=O)NCc2ccccc2-c2cc(C(=O)NCCC(C)C)ccc2C)cc1 [Example 16, N-(3-Methylbutyl)-2′-{[3-(4-methoxyphenyl)propionylamino]methyl}-6-methylbiphenyl-3-carboxamide] | –
